# Measured values: patent US20140206992A1, “METHOD FOR DIAGNOSING CANCER” (THE UNIVERSITY OF TOKYO, priority 2010, published 2014)
# What was measured:
# [1] = test system: SHIN3 cells derived from human ovarian cancer (peritoneal dissemination model); test: Fluorescence imaging using cancer model mouse (peritoneal dissemination model); assay type: in vivo, athymic mice; conditions: 300 μL of 50 μM in PBS i.p., 30 minutes after administration, from outside the body and after abdominal section
# Source text: Disseminated metastasis of ovarian cancer to the peritoneum is known as a generally-occurring lethal complication of ovarian cancer. Such metastasis to the peritoneum begins to occur at a relatively early stage of ovarian cancer, the tumor invades the […], and falls into the abdominal cavity, and as a result, the tumor metastasizes to the other organs in the abdominal cavity as seeds are scattered (dissemination metastasis). In order to experimentally reproduce this phenomenon, SHIN3 cells of ovarian cancer origin were intraperitoneally administered to athymic mice to prepare a peritoneal dissemination model (Neoplasia, 8, pp. 607-612, 2006). […]
# A solution of Compound (2) (γGlu-RhoHM) in PBS (50 μM) in a volume of 300 μL was intraperitoneally (i.p.) administered to the peritoneal dissemination model mice. Fluorescence imaging was performed by irradiating an excitation light of 450 to 480 nm from the outside of the mouse body under anesthesia 30 minutes after the i.p. administration, and observing fluorescence of 516 to 556 nm. Further, after the mice were sacrificed with CO2 gas, and exsanguination was performed, abdominal section was performed with surgery appliances for small animals to expose the abdominal cavity, an excitation light of 445 to 490 nm was irradiated, and fluorescence was measured at every 10 nm from 520 to 800 nm to obtain fluorescence spectrum images. […]
# LAP = test: Enzyme specificity: reaction with LAP; assay type: biochemical
# Method: Enzyme specificity of Compound (2) was examined. The DMSO solution (5 mM) in a volume of 3 μL was dissolved in 3 mL of a 0.1 M sodium phosphate buffer (pH 7.4) at a final concentration of 5 μM, and LAP (0.4 U) was added to the solution to perform the enzymatic reaction at 37° C.
# [2] = test system: γ-glutamyltranspeptidase (GGT, equine kidney); test: Enzymatic reaction of the fluorescent probe with γ-glutamyltranspeptidase (GGT); assay type: biochemical; conditions: 5 μM compound, excitation 501 nm
# Method: Compound (2) (γGlu-RhoHM) formed by binding the acyl residue derived from glutamic acid to one amino group of Compound (1) (RhoHM) was dissolved in a neutral phosphate buffer, and γ-glutamyltranspeptidase (GGT, equine kidney, SIGMA G9270-100UN) was reacted with the solution. Specifically, 3 μL of a […] of the compound in dimethyl sulfoxide (DMSO) was dissolved at a final concentration of 5 μM in 3 mL of a 0.1 M sodium phosphate buffer (pH 7.4), and GGT (1.1 U) was added for the enzymatic reaction at 37° C. The excitation wavelength was 501 nm.
# The DMSO solution of the compound (5 mM) in a volume of 3 μL was dissolved in 3 mL of a 0.1 M sodium phosphate buffer (pH 7.4) at a final concentration of 5 μM, and the enzymatic reaction was performed at 37° C. The values of fluorescence intensity observed with each amount of the enzyme 9 minutes after the addition of the enzyme were plotted. The excitation wavelength was 501 nm, and the fluorescence emission wavelength was 524 nm.
# [3] = test system: SHIN3 cells derived from human ovarian cancer (peritoneal dissemination model); test: Live imaging of cancer model mouse using fluorescent endoscope; assay type: in vivo; conditions: 300 μL of 50 μM in PBS sprayed from endoscope tip
# Source text: Disseminated metastasis of ovarian cancer to the peritoneum is known as a generally-occurring lethal complication of ovarian cancer. Such metastasis to the peritoneum begins to occur at a relatively early stage of ovarian cancer, the tumor invades the […], and falls into the abdominal cavity, and as a result, the tumor metastasizes to the other organs in the abdominal cavity as seeds are scattered (dissemination metastasis). In order to experimentally reproduce this phenomenon, SHIN3 cells of ovarian cancer origin were intraperitoneally administered to athymic mice to prepare a peritoneal dissemination model (Neoplasia, 8, pp. 607-612, 2006).
# The SHIN3 cells derived from human ovarian cancer were cultured at 37° C. in the RPMI 1640 medium containing 10% FBS, 100 U/mL of penicillin, and 100 μg/mL of streptomycin under 5% CO2. After the cells reached subconfluent, the cells were washed with PBS (phosphate buffered saline), and removed with Trypsin-EDTA so that individual cells were separated. The treated cells were centrifuged (100×g, 4° C., 3 minutes), and after the supernatant was discarded, ice-cooled PBS was added to the cells to suspend them at a cell density of 1×10^6 cells/300 μL. […]
# A small hole was formed in the abdominal part of the peritoneal dissemination model mouse under isoflurane anesthesia, a fluorescence endoscope was inserted into the abdominal cavity through the hole, and 300 μL of a solution of Compound (2) (γGlu-RhoHM) in PBS (50 μM) was sprayed in a misty state from the tip of the endoscope. Then, an excitation light of 450 to 480 nm was irradiated, and fluorescence of 516 to 556 nm was observed over time to obtain fluorescence endoscope movies and images. In each of the results obtained immediately after the spray (0 sec), and 30 seconds, 60 seconds, 90 seconds, and 10 minutes after the spray, a white light image is shown on the left side, and a fluorescence image is shown on the right side. The “white light image” is an image obtained in a usual endoscope mode, not a fluorescence mode for comparison.
smiles,measurement,setting,value
"Nc1ccc2c(c1)Oc1cc(NC(=O)CC[C@H](N)C(=O)O)ccc1C21OCc2ccccc21 (some centres unmarked) [Compound (2), γGlu-RhoHM]",fluorescence of cancer sites in imaging,[1],strong green fluorescence was observed in a cancer site-specific manner
same,increase of fluorescence intensity after reaction with LAP,"LAP; 5 μM compound, 0.1 M sodium phosphate buffer pH 7.4, LAP 0.4 U, 37° C.",increase of fluorescence intensity was not observed
same,enzyme specificity (GGT versus LAP),LAP; conclusion from the reactions with LAP (Example 3) and GGT (Example 2),specifically detected GGT
same,change of absorption and fluorescence intensity after reaction with GGT,"[2]; 0.1 M sodium phosphate buffer pH 7.4, GGT 1.1 U, 37° C.",remarkable elevations of absorption and fluorescence intensity were immediately observed
same,fluorescence intensity versus added GGT amount,"[2]; pH 7.4, 37° C., 9 minutes after addition of enzyme, emission 524 nm",linear increase of fluorescence intensity in an added GGT amount-dependent manner
same,time to specific fluorescence emission of the cancerous part,[3],specifically emit fluorescence within several minutes
same,cancerous tissue fluorescence images 10 minutes after spray,[3]; 10 minutes after the spray,cancerous tissues were clearly imaged
same,cancerous tissue fluorescence images from immediately after spray to 90 seconds,"[3]; excitation 450 to 480 nm, fluorescence 516 to 556 nm",cancerous tissue images became clearer
